Data: ChEMBL document CHEMBL5465560, “Selectivity Literature for EUbOPEN Chemogenomic Library” (2024)
pIC50: −log10 of the molar value.

Assays:
[1] = molecular target: T1, Serine/threonine-protein kinase TAO1 (Homo sapiens) (UniProt Q7L7X3); test: Selectivity interaction (ActivX KiNativ screen (ex vivo kinase selectivity in human PBMCs)) EUB0001619a TAOK1; type: cell-based; details: PBMC, at 1 µM
T1 sequence (whole entry): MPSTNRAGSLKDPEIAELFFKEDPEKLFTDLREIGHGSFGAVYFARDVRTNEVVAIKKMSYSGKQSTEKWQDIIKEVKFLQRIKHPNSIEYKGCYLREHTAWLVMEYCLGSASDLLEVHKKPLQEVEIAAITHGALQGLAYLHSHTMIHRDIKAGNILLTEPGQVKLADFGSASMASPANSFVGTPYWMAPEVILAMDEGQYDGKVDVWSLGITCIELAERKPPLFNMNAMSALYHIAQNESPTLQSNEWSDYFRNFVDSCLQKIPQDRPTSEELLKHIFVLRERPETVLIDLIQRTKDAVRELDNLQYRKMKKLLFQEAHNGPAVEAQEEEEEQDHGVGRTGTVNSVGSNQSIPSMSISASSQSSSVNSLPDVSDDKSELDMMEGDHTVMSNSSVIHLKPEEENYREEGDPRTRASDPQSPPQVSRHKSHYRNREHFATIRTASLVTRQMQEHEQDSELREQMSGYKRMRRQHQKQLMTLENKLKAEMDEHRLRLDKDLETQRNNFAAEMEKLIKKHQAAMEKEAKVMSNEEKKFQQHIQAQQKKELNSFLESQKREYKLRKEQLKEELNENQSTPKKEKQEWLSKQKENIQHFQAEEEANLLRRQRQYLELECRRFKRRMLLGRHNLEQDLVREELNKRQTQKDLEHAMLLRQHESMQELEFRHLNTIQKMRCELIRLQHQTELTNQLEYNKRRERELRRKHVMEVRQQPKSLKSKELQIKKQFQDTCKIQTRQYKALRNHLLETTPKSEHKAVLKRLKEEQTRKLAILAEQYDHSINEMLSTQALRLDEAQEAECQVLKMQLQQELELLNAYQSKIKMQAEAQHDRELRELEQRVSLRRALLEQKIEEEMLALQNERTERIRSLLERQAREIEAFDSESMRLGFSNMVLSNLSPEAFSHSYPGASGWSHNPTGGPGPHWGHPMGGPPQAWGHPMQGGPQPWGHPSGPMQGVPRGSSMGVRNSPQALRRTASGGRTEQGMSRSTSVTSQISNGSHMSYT

[2] = molecular target: CDK4/Cyclin D3 (Homo sapiens) (UniProt P11802+P30281); test: (§1) Selectivity interaction (KinomeScan (DiscoverX)) EUB0000229b CDK4; type: protein-complex assay; details: at 10 µM
[3] = molecular target: Cyclin-dependent kinase 4/cyclin D1 (Homo sapiens) (UniProt P11802+P24385); test: as §1; type: protein-complex assay; details: at 10 µM
[4] = molecular target: Receptor-interacting serine/threonine-protein kinase 2 (Homo sapiens, UniProt O43353); test: Selectivity interaction (NanoBRET assay (HEK293T cells)) EUB0000229b RIPK2; type: cell-based, HEK-293T
Sequence of Receptor-interacting serine/threonine-protein kinase 2 (O43353 whole entry): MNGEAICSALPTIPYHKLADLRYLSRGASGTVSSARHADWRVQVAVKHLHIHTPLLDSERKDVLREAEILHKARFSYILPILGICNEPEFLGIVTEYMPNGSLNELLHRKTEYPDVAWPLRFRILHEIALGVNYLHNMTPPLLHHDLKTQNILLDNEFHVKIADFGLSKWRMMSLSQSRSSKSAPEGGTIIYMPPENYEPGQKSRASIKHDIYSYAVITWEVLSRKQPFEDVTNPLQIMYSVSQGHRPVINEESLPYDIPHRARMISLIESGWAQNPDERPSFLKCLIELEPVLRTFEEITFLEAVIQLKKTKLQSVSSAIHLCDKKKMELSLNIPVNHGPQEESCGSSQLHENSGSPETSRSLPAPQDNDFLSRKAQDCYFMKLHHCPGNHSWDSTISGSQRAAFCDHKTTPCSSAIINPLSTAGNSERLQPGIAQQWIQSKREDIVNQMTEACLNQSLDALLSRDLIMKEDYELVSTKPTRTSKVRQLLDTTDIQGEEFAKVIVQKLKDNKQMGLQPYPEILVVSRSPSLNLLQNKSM

[5] = molecular target: T2, TGF-beta receptor type-1 (Homo sapiens) (UniProt P36897); test: Selectivity interaction (KinomeScan (DiscoverX)) EUB0000666a TGFBR1; details: at 10 µM
T2 sequence (whole entry): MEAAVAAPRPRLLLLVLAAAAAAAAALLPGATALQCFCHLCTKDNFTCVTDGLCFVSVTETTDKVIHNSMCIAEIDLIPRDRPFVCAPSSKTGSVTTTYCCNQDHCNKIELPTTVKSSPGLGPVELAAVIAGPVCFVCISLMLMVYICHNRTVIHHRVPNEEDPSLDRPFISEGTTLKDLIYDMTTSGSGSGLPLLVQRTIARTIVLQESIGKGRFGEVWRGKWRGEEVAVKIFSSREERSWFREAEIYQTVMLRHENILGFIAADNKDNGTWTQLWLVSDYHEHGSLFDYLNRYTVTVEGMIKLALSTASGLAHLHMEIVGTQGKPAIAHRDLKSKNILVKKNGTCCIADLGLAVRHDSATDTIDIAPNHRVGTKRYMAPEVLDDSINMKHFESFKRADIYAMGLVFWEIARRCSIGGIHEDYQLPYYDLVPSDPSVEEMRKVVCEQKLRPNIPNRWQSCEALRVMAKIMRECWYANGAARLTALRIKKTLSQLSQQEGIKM

[6] = molecular target: T3, Cyclin-dependent kinase-like 2 (Homo sapiens) (UniProt Q92772); test: Selectivity interaction (KINOMEscan (DiscoverX)) EUB0001868a CDKL2; details: at 1 µM
T3 sequence (whole entry): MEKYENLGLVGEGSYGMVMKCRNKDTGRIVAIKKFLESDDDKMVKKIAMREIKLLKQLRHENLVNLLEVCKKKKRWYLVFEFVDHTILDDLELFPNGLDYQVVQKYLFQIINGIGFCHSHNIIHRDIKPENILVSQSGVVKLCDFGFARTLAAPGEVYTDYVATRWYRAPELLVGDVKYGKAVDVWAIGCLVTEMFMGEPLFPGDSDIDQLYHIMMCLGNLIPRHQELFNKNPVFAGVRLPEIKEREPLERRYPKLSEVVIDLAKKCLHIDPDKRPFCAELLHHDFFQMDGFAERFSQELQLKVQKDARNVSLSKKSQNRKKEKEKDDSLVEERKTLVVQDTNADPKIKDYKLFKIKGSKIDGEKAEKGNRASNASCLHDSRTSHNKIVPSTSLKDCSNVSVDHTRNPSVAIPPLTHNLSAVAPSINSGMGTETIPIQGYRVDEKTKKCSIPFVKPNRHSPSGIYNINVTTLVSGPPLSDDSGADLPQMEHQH

[7] = molecular target: Insulin-like growth factor 1 receptor (Homo sapiens, UniProt P08069); test: Selectivity interaction (Kinase panel (Z-LYTE Assay)) EUB0001632a IGF1R; details: at 10 µM
Sequence of Insulin-like growth factor 1 receptor (P08069 31-736 limits assumed): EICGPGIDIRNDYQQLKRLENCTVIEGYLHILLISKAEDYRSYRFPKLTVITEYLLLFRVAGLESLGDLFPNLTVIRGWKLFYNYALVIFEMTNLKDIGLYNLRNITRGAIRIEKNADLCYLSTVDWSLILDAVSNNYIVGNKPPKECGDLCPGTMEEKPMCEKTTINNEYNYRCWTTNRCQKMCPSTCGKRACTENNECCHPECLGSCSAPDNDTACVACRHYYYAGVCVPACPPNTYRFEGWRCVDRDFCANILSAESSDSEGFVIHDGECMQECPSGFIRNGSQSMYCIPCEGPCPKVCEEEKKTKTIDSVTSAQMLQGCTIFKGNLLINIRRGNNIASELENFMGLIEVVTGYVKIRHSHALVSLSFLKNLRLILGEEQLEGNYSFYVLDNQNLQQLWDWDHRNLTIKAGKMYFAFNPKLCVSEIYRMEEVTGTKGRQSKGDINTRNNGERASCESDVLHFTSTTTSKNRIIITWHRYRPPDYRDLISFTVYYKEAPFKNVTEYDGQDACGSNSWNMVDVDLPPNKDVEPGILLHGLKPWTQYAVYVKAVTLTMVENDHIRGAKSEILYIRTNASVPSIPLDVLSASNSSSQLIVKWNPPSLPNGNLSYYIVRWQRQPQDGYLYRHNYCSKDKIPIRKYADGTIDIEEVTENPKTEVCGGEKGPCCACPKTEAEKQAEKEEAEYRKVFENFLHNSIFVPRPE
Sequence of Insulin-like growth factor 1 receptor (P08069 741-1367 limits assumed): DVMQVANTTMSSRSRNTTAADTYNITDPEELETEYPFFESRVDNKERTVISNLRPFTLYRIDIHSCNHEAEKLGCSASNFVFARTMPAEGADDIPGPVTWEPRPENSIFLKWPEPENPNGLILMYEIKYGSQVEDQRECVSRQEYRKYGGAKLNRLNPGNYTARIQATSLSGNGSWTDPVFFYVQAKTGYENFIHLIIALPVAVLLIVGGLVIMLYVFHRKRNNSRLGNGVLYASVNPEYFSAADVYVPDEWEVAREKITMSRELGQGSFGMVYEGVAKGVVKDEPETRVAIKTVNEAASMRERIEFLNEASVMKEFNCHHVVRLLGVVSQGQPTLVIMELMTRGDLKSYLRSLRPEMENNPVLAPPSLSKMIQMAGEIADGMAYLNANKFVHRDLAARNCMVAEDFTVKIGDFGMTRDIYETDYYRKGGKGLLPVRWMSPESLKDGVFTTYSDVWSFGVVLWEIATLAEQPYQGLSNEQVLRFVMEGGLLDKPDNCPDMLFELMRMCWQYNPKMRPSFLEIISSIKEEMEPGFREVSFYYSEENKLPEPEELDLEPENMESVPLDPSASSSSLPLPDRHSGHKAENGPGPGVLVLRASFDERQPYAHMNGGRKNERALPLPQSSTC

Work on `N#Cc1cccc(-c2c[nH]c3ncnc(N4CCOCC4)c23)c1` yielded a % of inhibition [1] of 6%.
With `COc1cc(N(C)c2ccnc3ccc(C(F)(F)F)cc23)cc(OC)c1OC` the % binding [2] was 94%, the % binding [3] was 99% and the pIC50 [4] was under 5.00.
Compound `O=C(NOC[C@H](O)CO)c1ccc(F)c(F)c1Nc1ccc(I)cc1F` has a % of control [5] of 100%.
`Cc1cc(-c2ccnc(Nc3cnn(C)c3)n2)ccc1CNC(=O)N1CC(OC(C)C)C1` gave a % of control [6] of 15%.
Work on `Cn1cc(-n2cnc3c(NCc4nc5cc(Cl)c(Cl)cc5[nH]4)nc(N4CCOCC4)nc32)cn1` yielded a % of control [7] of 3.73%.
